# Assay results published in US7781590B2, “Piperidinylalkylcarbamate derivatives, methods for their preparation and the therapeutic use thereof as fatty acid amido hydrolase enzyme inhibitors” (Sanofi-Aventis, priority 2004, dated 2010).
# Where a name gives a salt, the structure may show the parent alone.
row,Structure (SMILES),melting point [°C]
1,"CNC(=O)COC(=O)NCCC1CCN(Cc2ccc(Br)cc2)CC1 [Compound 12, 2-(methylamino)-2-oxoethyl 2-{1-[(4-bromophenyl)methyl]piperidin-4-yl}ethylcarbamate]",107 to 111
2,"CNC(=O)COC(=O)NCCC1CCN(Cc2cccc(C(F)(F)F)c2)CC1 [Compound 13, 2-(methylamino)-2-oxoethyl 2-(1-{[3-(trifluoromethyl)phenyl]methyl}piperidin-4-yl)ethylcarbamate]",90 to 92
3,"CNC(=O)COC(=O)NCCC1CCN(Cc2ccc(C(F)(F)F)cc2)CC1 [Compound 14, 2-(methylamino)-2-oxoethyl 2-(1-{[4-(trifluoromethyl)phenyl]methyl}piperidin-4-yl)ethylcarbamate]",116 to 120
4,"CNC(=O)COC(=O)NCCC1CCN(Cc2ccc(OC(F)(F)F)cc2)CC1 [Compound 16, 2-(methylamino)-2-oxoethyl 2-{1-[4-(trifluoromethoxy)benzyl]piperidin-4-yl}ethylcarbamate]",109 to 111
5,"CNC(=O)COC(=O)NCCC1CCN(Cc2cccc(Cl)c2Cl)CC1 [Compound 17, 2-(methylamino)-2-oxoethyl 2-{1-[(2,3-dichlorophenyl)methyl]piperidin-4-yl}ethylcarbamate]",114 to 116
6,"CNC(=O)COC(=O)NCCC1CCN(Cc2ccc(Cl)cc2Cl)CC1 [Compound 18, 2-(methylamino)-2-oxoethyl 2-[1-(2,4-dichlorobenzyl)piperidin-4-yl]ethylcarbamate]",117 to 119
7,"CNC(=O)COC(=O)NCCC1CCN(Cc2cc(Cl)ccc2Cl)CC1 [Compound 19, 2-(methylamino)-2-oxoethyl 2-[1-(2,5-dichlorobenzyl)piperidin-4-yl]ethylcarbamate]",125 to 127
8,"CNC(=O)COC(=O)NCCC1CCN(Cc2ccc(Cl)c(Cl)c2)CC1 [Compound 20, 2-(methylamino)-2-oxoethyl 2-{1-[(3,4-dichlorophenyl)methyl]piperidin-4-yl}ethylcarbamate]",101 to 105
9,"CNC(=O)COC(=O)NCCC1CCN(Cc2cc(Cl)cc(Cl)c2)CC1 [Compound 21, 2-(methylamino)-2-oxoethyl 2-[1-(3,5-dichlorobenzyl)piperidin-4-yl]ethylcarbamate]",124 to 126
10,"CNC(=O)COC(=O)NCCC1CCN(Cc2cc(F)ccc2Cl)CC1 [Compound 22, 2-(methylamino)-2-oxoethyl 2-[1-(2-chloro-5-fluorobenzyl)piperidin-4-yl]ethylcarbamate]",102 to 104
11,"CNC(=O)COC(=O)NCCC1CCN(Cc2cccc(Cl)c2F)CC1 [Compound 23, 2-(methylamino)-2-oxoethyl 2-[1-(3-chloro-2-fluorobenzyl)piperidin-4-yl]ethylcarbamate]",104 to 106
12,"CNC(=O)COC(=O)NCCC1CCN(Cc2cc(C)cc(Cl)c2)CC1 [Compound 24, 2-(methylamino)-2-oxoethyl 2-[1-(3-chloro-5-methylbenzyl)piperidin-4-yl]ethylcarbamate]",79 to 81
13,"CNC(=O)COC(=O)NCCC1CCN(Cc2ccc(-c3ccc(F)cc3)cc2Cl)CC1 [Compound 27, 2-(methylamino)-2-oxoethyl 2-{1-[(3-chloro-4′-fluorobiphenyl-4-yl)methyl]piperidin-4-yl}ethylcarbamate]",98 to 102
14,"CNC(=O)COC(=O)NCCC1CCN(Cc2ccc(Oc3ccc(Cl)c(F)c3)cc2)CC1 [Compound 28, 2-(methylamino)-2-oxoethyl 2-{1-[4-(4-chloro-3-fluorophenoxy)benzyl]piperidin-4-yl}ethylcarbamate]",109 to 111
15,"CNC(=O)COC(=O)NCCC1CCN(Cc2cccc3ccccc23)CC1 [Compound 29, 2-(methylamino)-2-oxoethyl 2-[1-(naphthalen-1-ylmethyl)piperidin-4-yl]ethylcarbamate]",86 to 88
16,"CNC(=O)COC(=O)NCCC1CCN(Cc2cccc(OC(C)(C)C)c2)CC1 [Compound 122, 2-(methylamino)-2-oxoethyl 2-[1-(3-tert-butoxybenzyl)piperidin-4-yl]ethylcarbamate]",66 to 70

# Results, then the compound that gave them:
row,melting point [°C],Structure (SMILES)
1,121 to 123,"CNC(=O)COC(=O)NCCC1CCN(CCc2ccccc2Cl)CC1 (as salt: HCl) [Compound 57, 2-(methylamino)-2-oxoethyl 2-{1-[2-(2-chlorophenyl)ethyl]piperidin-4-yl}ethylcarbamate]"
2,118 to 120,"CNC(=O)COC(=O)NCCC1CCN(CCCc2ccc(OC)cc2)CC1 (as salt: HCl) [Compound 64, 2-(methylamino)-2-oxoethyl 2-(1-{3-[4-(methyloxy)phenyl]propyl}piperidin-4-yl)ethylcarbamate]"
3,169 to 171,"CNC(=O)COC(=O)NCCC1CCN(C(C)c2cccc(OC(F)(F)F)c2)CC1 (stereo not drawn) (as salt: HCl) [Compound 110, 2-(methylamino)-2-oxoethyl 2-(1-{1-[3-(trifluoromethoxy)phenyl]ethyl}piperidin-4-yl)ethylcarbamate]"
4,87 to 93,"CNC(=O)COC(=O)NCCC1CCN(Cc2ccc3ccccc3c2)CC1 [Compound 30, 2-(methylamino)-2-oxoethyl 2-[1-(naphthalen-2-ylmethyl)piperidin-4-yl]ethylcarbamate]"
5,104 to 106,"CNC(=O)COC(=O)NCCC1CCN(Cc2ccccn2)CC1 [Compound 31, 2-(methylamino)-2-oxoethyl 2-[1-(pyridin-2-ylmethyl)piperidin-4-yl]ethylcarbamate]"
6,126 to 128,CNC(=O)COC(=O)NCC1CCN(CCc2ccc(F)cc2OC)CC1 [Compound 52]
7,122 to 124,"CNC(=O)COC(=O)NCCC1CCN(CCc2ccc(F)cc2)CC1 [Compound 58, 2-(methylamino)-2-oxoethyl 2-{1-[2-(4-fluorophenyl)ethyl]piperidin-4-yl}ethylcarbamate]"
8,118 to 120,"CCOc1ccc(CCN2CCC(CCNC(=O)OCC(=O)NC)CC2)cc1 [Compound 59, 2-(methylamino)-2-oxoethyl 2-(1-{2-[4-(ethyloxy)phenyl]ethyl}piperidin-4-yl)ethylcarbamate]"
9,88 to 90,"CNC(=O)COC(=O)NCCC1CCN(CCc2c(F)cccc2Cl)CC1 [Compound 60, 2-(methylamino)-2-oxoethyl 2-{1-[2-(2-chloro-6-fluorophenyl)ethyl]piperidin-4-yl}ethylcarbamate]"
10,115 to 119,CNC(=O)COC(=O)NC1CCN(CCOc2ccc(Cl)cc2Cl)CC1 [Compound 68]
11,125 to 129,"CNC(=O)COC(=O)NCCC1CCN(CCOc2ccc(F)cc2)CC1 [Compound 83, 2-(methylamino)-2-oxoethyl 2-(1-{2-[(4-fluorophenyl)oxy]ethyl}piperidin-4-yl)ethylcarbamate]"
12,109 to 113,"CNC(=O)COC(=O)NCCC1CCN(CCOc2ccc(Cl)cc2)CC1 [Compound 84, 2-(methylamino)-2-oxoethyl 2-(1-{2-[(4-chlorophenyl)oxy]ethyl}piperidin-4-yl)ethylcarbamate]"
13,108 to 110,"CNC(=O)COC(=O)NCCC1CCN(Cc2ccc(F)cc2Cl)CC1 [Compound 100, 2-(methylamino)-2-oxoethyl 2-[1-(2-chloro-4-fluorobenzyl)piperidin-4-yl]ethylcarbamate]"
14,112 to 114,"CNC(=O)COC(=O)NCCC1CCN(Cc2ccc(F)c(Cl)c2)CC1 [Compound 101, 2-(methylamino)-2-oxoethyl 2-[1-(3-chloro-4-fluorobenzyl)piperidin-4-yl]ethylcarbamate]"
15,132 to 134,"CNC(=O)COC(=O)NCCC1CCN(Cc2cc(F)cc(C#N)c2)CC1 [Compound 102, 2-(methylamino)-2-oxoethyl 2-[1-(3-cyano-5-fluorobenzyl)piperidin-4-yl]ethylcarbamate]"
16,79 to 81,"CNC(=O)COC(=O)NCCC1CCN(Cc2cccc(Oc3ccc(F)cc3)c2)CC1 [Compound 103, 2-(methylamino)-2-oxoethyl 2-{1-[3-(4-fluorophenoxy)benzyl]piperidin-4-yl}ethylcarbamate]"
17,169 to 171,"CNC(=O)COC(=O)NCCC1CCN(Cc2cc(-c3ccc(Cl)cc3)no2)CC1 [Compound 104, 2-(methylamino)-2-oxoethyl 2-(1-{[3-(4-chlorophenyl)isoxazol-5-yl]methyl}piperidin-4-yl)ethylcarbamate]"
18,124 to 126,"CNC(=O)COC(=O)NCCC1CCN(Cc2ncc(-c3ccc(Cl)cc3)o2)CC1 [Compound 105, 2-(methylamino)-2-oxoethyl 2-(1-{[5-(4-chlorophenyl)-1,3-oxazol-2-yl]methyl}piperidin-4-yl)ethylcarbamate]"
19,161 to 163,"CNC(=O)COC(=O)NCCC1CCN(Cc2nc(-c3ccc(C(F)(F)F)cc3)cs2)CC1 [Compound 106, 2-(methylamino)-2-oxoethyl 2-[1-({4-[4-(trifluoromethyl)phenyl]-1,3-thiazol-2-yl}methyl)piperidin-4-yl]ethylcarbamate]"
20,135 to 137,"CNC(=O)COC(=O)NCCC1CCN(CCc2cc(-c3ccc(Cl)cc3)no2)CC1 [Compound 120, 2-(methylamino)-2-oxoethyl 2-(1-{2-[3-(4-chlorophenyl)isoxazol-5-yl]ethyl}piperidin-4-yl)ethylcarbamate]"
